Assay results from patent US6258811A, “Methods for preventing, inhibiting or treating graft rejection reactions in graft-versus-host disease (GVHD) and organ transplantation” (Eisai Co., Ltd., priority 1996, dated 2001).
pIC50: −log10 of the molar value.

Key:
RAR-α = biological target: T1, RAR-α (Homo sapiens, UniProt P10276); test: RAR-mediated transcriptional promotion activity, RAR-α; assay type: cell-based; conditions: ED30 of all-trans-retinoic acid taken as 1; 3 μM all-trans-retinoic acid = 100%
T1 sequence (P10276 1-462): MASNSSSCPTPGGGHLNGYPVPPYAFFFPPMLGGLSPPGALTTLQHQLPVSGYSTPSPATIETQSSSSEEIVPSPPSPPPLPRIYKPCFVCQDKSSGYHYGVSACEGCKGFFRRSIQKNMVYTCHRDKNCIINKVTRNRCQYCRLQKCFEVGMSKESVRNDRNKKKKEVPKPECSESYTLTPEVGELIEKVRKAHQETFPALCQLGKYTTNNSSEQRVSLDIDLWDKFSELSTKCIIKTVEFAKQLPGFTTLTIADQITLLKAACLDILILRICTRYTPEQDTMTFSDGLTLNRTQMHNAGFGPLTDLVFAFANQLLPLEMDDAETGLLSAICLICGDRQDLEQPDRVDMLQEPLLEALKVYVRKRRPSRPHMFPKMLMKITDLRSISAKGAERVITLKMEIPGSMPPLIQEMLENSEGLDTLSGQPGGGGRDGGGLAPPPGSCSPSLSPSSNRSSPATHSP
Description: (§1) Retinoic acid receptor (RAR) binding assay and RAR-mediated transcriptional promotion activity of compound represented by formula (I): […]

RAR-β [1] = biological target: T2, RAR-β (Homo sapiens, UniProt P10826); test: RAR-mediated transcriptional promotion activity, RAR-β; assay type: cell-based; conditions: ED30 of all-trans-retinoic acid taken as 1; 3 μM all-trans-retinoic acid = 100%
T2 sequence (P10826 1-455): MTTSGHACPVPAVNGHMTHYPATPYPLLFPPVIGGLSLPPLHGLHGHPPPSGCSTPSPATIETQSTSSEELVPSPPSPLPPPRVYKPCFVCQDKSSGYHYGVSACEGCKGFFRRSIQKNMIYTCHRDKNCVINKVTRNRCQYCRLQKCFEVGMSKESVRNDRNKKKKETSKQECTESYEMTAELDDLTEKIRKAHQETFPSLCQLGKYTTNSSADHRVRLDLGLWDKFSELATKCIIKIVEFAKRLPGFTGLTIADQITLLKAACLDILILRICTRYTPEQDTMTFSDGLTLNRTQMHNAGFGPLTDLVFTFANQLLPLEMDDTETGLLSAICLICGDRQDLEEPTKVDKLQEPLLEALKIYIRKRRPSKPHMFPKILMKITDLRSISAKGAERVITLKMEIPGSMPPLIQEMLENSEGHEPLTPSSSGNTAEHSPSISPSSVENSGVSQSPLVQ
Description: as §1

RAR-γ = biological target: T3, RAR-γ (Homo sapiens, UniProt P13631); test: RAR-mediated transcriptional promotion activity, RAR-γ; assay type: cell-based; conditions: ED30 of all-trans-retinoic acid taken as 1; 3 μM all-trans-retinoic acid = 100%
T3 sequence (P13631 1-454): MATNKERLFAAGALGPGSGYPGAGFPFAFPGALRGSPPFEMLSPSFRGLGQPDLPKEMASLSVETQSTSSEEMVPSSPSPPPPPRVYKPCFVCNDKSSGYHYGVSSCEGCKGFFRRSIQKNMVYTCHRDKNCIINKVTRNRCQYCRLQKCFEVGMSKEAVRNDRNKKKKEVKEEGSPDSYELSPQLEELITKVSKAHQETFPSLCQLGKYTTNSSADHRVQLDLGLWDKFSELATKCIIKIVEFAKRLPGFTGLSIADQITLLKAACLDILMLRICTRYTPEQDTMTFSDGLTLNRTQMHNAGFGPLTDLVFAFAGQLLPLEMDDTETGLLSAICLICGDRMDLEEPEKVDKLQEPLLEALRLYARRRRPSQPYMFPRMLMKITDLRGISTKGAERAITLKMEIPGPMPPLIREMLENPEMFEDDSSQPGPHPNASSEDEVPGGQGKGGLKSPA
Description: as §1

patients = conditions: background; cited from earlier work
P-815(H-2d) = test: Acute GVHD model: cytotoxic T cell activity of donor on host; assay type: in vivo, mice (BDF1 hosts, C57BL/6N donors); conditions: oral, once a day, 12 to 13 days after cell transfer
Description: (§2) A graft-versus-host disease (GVHD) model experiment was effected in accordance with the method reported by Durei et al. (J. Clin. Invest., 94, 1333 1994.).
(§3) As the indication of an acute GVHD model (1), use was made of the cytotoxic T cell activity of a donor on a host. As the indication of a chronic GVHD model (2), use was made of the blood antiDNA antibody titer.
In the transplantation, BDF1 mice (H-2b/d) and C57BL/6N mice (H-2b) were employed respectively as the hosts and donors. 5×10^7 /mouse of donors' spleen cells were transferred into the hosts via the tail vein. 4-{2-[5-(4,7-Dimethylbenzofuran-2-yl)pyrrolyl]}benzoic acid (compound A) was suspended in a 0.5% aqueous solution of methylcellulose and then orally administered to the hosts once a day from the first day of the cell transfer to the day before the measurement of the cytotoxic T cell activity. The 0.5% aqueous solution of methylcellulose alone was similarly administered to the control group. 12 to 13 days after the cell transfer, the spleen of each host animal was taken out and a suspension of the spleen cells to be used as effector cells was prepared. As the target cells, use was made of P-815(H-2d) which were cultured together with the effector cells for 4 hours. The cytotoxicity (%) was expressed as the percentage of ^51 Cr liberated into the culture supernatant during this culture time to the total radioactivity.

[2] = tested on: serum antiDNA antibody titer (IgG class); test: Chronic GVHD model: serum antiDNA antibody titer (ELISA); assay type: in vivo, mice (BDF1 hosts, DBA/2 donors); conditions: oral, once a day, two weeks after cell transfer
Description: as §2, §3
In the transplantation, BDF1 mice (H-2b/d) and DBA/2 mice (H-2d) were employed respectively as the hosts and donors. 5×10^7 /mouse of donors' spleen cells were transferred into the hosts via the tail vein. 4-{2-[5-(4,7-Dimethylbenzofuran-2-yl)pyrrolyl]}benzoic acid was dissolved in a 0.5% aqueous solution of methylcellulose and then orally administered to the hosts once a day from the first day of the cell transfer to the day before the blood sampling. The 0.5% aqueous solution of methylcellulose alone was similarly administered to the control group. Two weeks after the cell transfer, the blood of each host animal was sampled and the serum antiDNA antibody titer (IgG class) was measured by the ELISA method.

immune system = conditions: background; cited from earlier work
RAR-β [3] = biological target: T2, RAR-β; test: Receptor binding assay, RAR-β
Description: as §1

chronic GVHD = conditions: cyclosporin A and prednisolone, bone marrow transplantation patients; cited from earlier work
rat adjuvant arthritis = conditions: Science 221, 756, 1983; cited from earlier work

Transcriptional promotion activity, Relative ED30, RAR-α (RAR-α)	Transcriptional promotion activity, Relative ED30, RAR-β (RAR-β [1])	Transcriptional promotion activity, Relative ED30, RAR-γ (RAR-γ)	SMILES	further results
0.33	8.1	95	O=C(O)c1ccc(-c2ccc(-c3cc4c(C(F)(F)F)ccc(F)c4o3)[nH]2)cc1	
0.39	2.8	31	Cc1ccc(C)c2c(F)c(-c3ccc(-c4ccc(C(=O)O)cc4)[nH]3)oc12	
			Cn1cnc([N+](=O)[O-])c1Sc1ncnc2nc[nH]c12 [azathioprine]	side effects (patients): bone marrow depression, hepatic disorder, pancreatitis, digestive tract symptoms, cardiopalmus and respiratory disorder
			C=CC[C@@H]1/C=C(\C)C[C@H](C)C[C@H](OC)[C@H]2O[C@@](O)(C(=O)C(=O)N3CCCC[C@H]3C(=O)O[C@H](/C(C)=C/[C@@H]3CC[C@@H](O)[C@H](OC)C3)[C@H](C)[C@@H](O)CC1=O)[C@H](C)C[C@@H]2OC [tacrolimus (FK 506), tacrolimus]	side effects (patients): renal function disorder, shock, elevation of blood pressure, heart failure, pancreatitis,hemolytic-uremic syndrome, thrombotic thrombopenia, purpura and hyperglycemia
			Cc1ccc(C)c2oc(-c3ccc(-c4ccc(C(=O)O)cc4)[nH]3)cc12 [compound A, 4-{2-[5-(4,7-Dimethylbenzofuran-2-yl)pyrrolyl]}benzoic acid]	minimal effective dose (P-815(H-2d); Mus musculus, P815, read-out: dose from which induction of the cytotoxic T cell activity was inhibited dose-dependently): ≥ 0.1 mg/kg; induction of the cytotoxic T cell activity (P-815(H-2d)): strongly inhibited the induction of the cytotoxic T cell activity dose-dependently; minimal effective dose ([2]; Mus musculus, 336 h, read-out: dose from which serum antiDNA antibody titer was inhibited dose-dependently): ≥ 0.3 mg/kg; serum antiDNA antibody titer [2]: strongly inhibited the serum antiDNA antibody titer dose-dependently
0.21	1.4	19	CC1(C)CCC(C)(C)c2nc(-c3ccc(-c4ccc(C(=O)O)cc4)[nH]3)cnc21	
			CC1=C(/C=C/C(C)=C/C=C/C(C)=C/C(=O)O)C(C)(C)CCC1 [retinoic acid]	effect on the immune system (immune system): suppressive effect on the immune system
			CN(Cc1cnc2nc(N)nc(N)c2n1)c1ccc(C(=O)N[C@@H](CCC(=O)O)C(=O)O)cc1 [methotrexate]	side effects (patients): bone marrow depression, hepatic/renal function disorder, mucosal disorder, psychoneurosis, interstitial pneumonia, pulmonary fibrosis, etc.
			O=C(O)c1ccc(-c2ccc(-c3cc4c(Cl)ccc(Cl)c4o3)[nH]2)cc1 [drawing 8]	pIC50 (RAR-β [3]): 6.30
0.26	24	120	CCc1ccc(C)c2cc(-c3ccc(-c4ccc(C(=O)O)cc4)[nH]3)oc12	
0.33	91	790	O=C(O)c1ccc(-c2ccc(-c3cc4c(F)ccc(Cl)c4o3)[nH]2)cc1	
			C[C@]12C=CC(=O)C=C1CC[C@@H]1[C@@H]2[C@@H](O)C[C@@]2(C)[C@H]1CC[C@]2(O)C(=O)CO [prednisolone]	effect on chronic GVHD (chronic GVHD): no satisfactory effect; side effects (patients): induced infectious diseases, peptic ulcer, etc.
			CC1=C(/C=C/C(C)=C/C=C/C(C)=C\C(=O)O)C(C)(C)CCC1 [13-cis-retinoic acid]	secondary inflammation in rat adjuvant arthritis (rat adjuvant arthritis): significantly suppressed
1.0	160	1400	O=C(O)c1ccc(-c2ccc(-c3cc4c(Cl)ccc(Cl)c4o3)[nH]2)cc1 [drawing 15]	

SMILES	Transcriptional promotion activity, Relative ED30, RAR-α (RAR-α)	Transcriptional promotion activity, Relative ED30, RAR-β (RAR-β [1])	Transcriptional promotion activity, Relative ED30, RAR-γ (RAR-γ)	further results
Cc1ccc(C)c2oc(-c3ccc(-c4ccc(C(=O)O)cc4)[nH]3)cc12 [drawing 14]	0.4	13	191	
